Source: PubChem BioAssay AID652111 (The Scripps Research Institute Molecular Screening Center, 2013)
Activity calls are given as the source filed them.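 Rule for the calls: active = IC50 below 50 µM against PP5; inactive = the rest.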

Biological target: Serine/threonine-protein phosphatase 5 (Homo sapiens) (UniProt P53041)
Assay: PP5 inhibition of phosphorylase dephosphorylation, late-stage follow-up, selectivity assay for PP1 inhibitor project, biochemical, radiolabel, glycogen phosphorylase substrate, powder samples (AID 652111)
Conditions: recombinant PP5c, 32P/33P phosphorylase dephosphorylation, scintillation

Sequence of Serine/threonine-protein phosphatase 5 (Homo sapiens) (P53041 whole entry, looked up): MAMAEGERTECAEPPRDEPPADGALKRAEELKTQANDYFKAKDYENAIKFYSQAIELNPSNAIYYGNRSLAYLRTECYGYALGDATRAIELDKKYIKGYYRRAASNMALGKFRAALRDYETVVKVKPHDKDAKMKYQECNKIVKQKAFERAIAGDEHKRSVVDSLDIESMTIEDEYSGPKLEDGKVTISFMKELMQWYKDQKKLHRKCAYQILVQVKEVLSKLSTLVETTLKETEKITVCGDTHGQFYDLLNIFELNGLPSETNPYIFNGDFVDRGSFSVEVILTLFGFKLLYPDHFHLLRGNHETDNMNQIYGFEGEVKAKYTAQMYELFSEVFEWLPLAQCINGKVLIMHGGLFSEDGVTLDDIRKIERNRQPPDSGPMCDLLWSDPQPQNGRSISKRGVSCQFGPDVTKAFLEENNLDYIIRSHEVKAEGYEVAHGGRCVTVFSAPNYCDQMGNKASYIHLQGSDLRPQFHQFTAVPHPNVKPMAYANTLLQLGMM

Row | Compound | IC50
1 | CN1CCN(C(c2ccccn2)c2cc(Cl)c3cccnc3c2O)CC1 (stereo not given) | > 50 µM (inactive)
2 | N#Cc1c(-c2ccc(Cl)cc2)cc(-c2cccs2)nc1SCC(=O)O | < 50 µM
3 | COc1ccc(NC(=O)C2C3CCC(O3)C2C(=O)O)c(OC)c1 (stereo not given) | 4.16 µM
4 | CCOC(=O)c1sc2nc3c(SCC(=O)O)cc(C(=O)c4cc(F)ccc4O)cn3c(=O)c2c1C | < 50 µM
5 | CCn1c2ccccc2c2cc(NC(=O)COC(=O)c3ccc(NC(=O)CC#N)cc3)ccc21 | > 50 µM (inactive)
